Laboratory results published in ChEMBL document CHEMBL1151586, “Design and synthesis of 10-oxo derivative of N-cyclopropylmethyl ()-6-acetylthiodihydro-normorphine, a potentially -selective opioid receptor ligand” (Bioorg Med Chem Lett, 1995).

Experiments:
Cavia porcellus [1] = organism: Cavia porcellus; test: Inhibition of the twitch response of the guinea pig longitudinal muscle strip to electrical stimulation in a concentration-dependent manner; type: functional, Muscle tissue
Cavia porcellus [2] = organism: Cavia porcellus; test: Inhibition of the twitch response of the guinea pig ileal strip to electrical stimulation; type: functional; settings: read-out: pA2 (converted)

`CC(=O)Oc1ccc2c3c1O[C@H]1[C@H](SC(C)=O)C=CC4[C@@H](C2)N(CC2CC2)CC[C@@]341` (some centres undefined) showed a pD2 (Cavia porcellus [1]) of 8.4 M.

`CC(=O)Oc1ccc2c3c1O[C@H]1[C@H](SC(C)=O)CCC4[C@@H](C2=O)N(CC2CC2)CC[C@@]341` (some centres undefined) was tested, and the Kb (Cavia porcellus [2]) was 0.0355 nM and the pD2 (Cavia porcellus [1]) was 9.03 M.

With `CN1CC[C@]23c4c5ccc(O)c4O[C@H]2[C@@H](O)C=C[C@H]3[C@H]1C5` [MORPHINE] the pD2 (Cavia porcellus [1]) was 7.23 M.
